Values of other authors, collected in patent publication US20150328277A1 (Teva Pharmaceutical Industries, Ltd., priority 2012, published 2015).
Where two headings read alike, the source gives them in different places.

Columns and labels:
multiple sclerosis = conditions: 20 mg/day subcutaneous (s.c.); MS patients
[1] = tested on: experimental autoimmune encephalomyelitis (EAE); conditions: orally administered; rats
[2] = tested on: experimental autoimmune encephalomyelitis (EAE); conditions: orally administered; mice
[3] = tested on: relapsing multiple sclerosis; conditions: administered orally; clinical trial

## L-glutamic acid polymer with L-alanine, L-lysine, L-tyrosine, acetate (salt) [glatiramer acetate]
Multiple sclerosis
  total number of enhancing lesions as measured by MRI: reduce the total number of enhancing lesions
[1]
  induction of EAE: inhibited the induction of experimental autoimmune encephalomyelitis (EAE)
[2]
  induction of EAE: inhibited the induction of experimental autoimmune encephalomyelitis (EAE)
[3]
  relapse rate or other clinical MRI parameters of disease activity: did not affect relapse rate or other clinical MRI parameters of disease activity
